Target: T1, Cyclin E/CDK2 (Homo sapiens, UniProt P24941)
T1 construct: made in house; host or cells: SF9 insect cells, baculovirus co-infection
Assay: In vitro cyclin E/CDK2 kinase assay (33P-ATP, SPA beads), IC50 determination
Format: biochemical

## Cn1cc(-c2cnn3c(Nc4ccc(-n5ccnc5)cc4)cc(C4CCCNC4)nc23)cn1 (stereo not shown) [Example 90-C]
  IC50: 200 nM

Reference: patent US7601724B2, “Substituted pyrazolo[1,5-a]pyrimidines as protein kinase inhibitors” (Schering Corporation, priority 2002, dated 2009)
